Where “and” joins values, the source holds several entries; their conditions need not be identical. Equal values may be shown once.
Tested on: B16F10 Cherry melanoma metastases
Test: Example 10: number of lung tumor metastases in the B16F10 tumor mouse model
Assay type: in vivo, C57/BL6 mice
Conditions: 100 mg/kg once-daily oral gavage days 0 to 13, counted day 14, Batch 71236AA006
Method: The C57/BL6 mouse melanoma cell line B16F10 Cherry was cultured in DMEM supplemented with 10% FCS, GlutaMAX, and penicillin/streptomycin. Tumor cells are periodically verified to be Mycoplasma negative by the Victorian Infectious Diseases References Lab (Melbourne, VIC, Australia) by PCR analysis. 2×10^5 cells were resuspended in PBS and injected i.v. into C57/BL6 mice in a 200 μL volume. At day 14 lungs were excised and the number of metastases counted under the dissecting microscope. Mice were dosed with either SYN-115 (Batch 71236AA006) at 100 mg/kg or vehicle control once-daily via oral gavage on days 0 to 13. To calculate a dose of SYN-115 mouse weight was estimated to be 20 g per mouse. Therefore, 100 mg/kg=2 mg per mouse in 200 μL, which is equivalent to 10 mg/ml. To make up 40 mL, 400 milligrams of SYN-115 was weighed and added into a Falcon tube, then 1 mL of Tween 80 was added and mixed into a paste and then 39 mL of 1% Methyl Cellulose was added. Solution was vortexed and then left on a rotating mixer for at least 2 hours and maintained at 4° C.

COc1ccc(N2CCOCC2)c2sc(NC(=O)N3CCC(C)(O)CC3)nc12 [SYN-115, 4-hydroxy-4-methyl-piperidine-1-carboxylic acid (4-methoxy-7-morpholin-4-yl-benzothiazol-2-yl)-amide]
Number of Tumor Metastases (lung), individual mice (AC#009 Males): 0 (2×) and 9 and 5 and 16 and 13 and 1
Number of Tumor Metastases (lung), individual mice (AC#010 Females): 166 and 38 and 141 and 32 and 137 and 264 and 23 and 226

— US20220088024A1, “METHODS FOR TREATING CANCER USING TOZADENANT” (Biotie Therapies, Inc., priority 2018, published 2022)
